Several values for one entry are separate records, joined by “and”; a condition that tells them apart may be missing. Identical values can stand only once.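 1) Cells in 96-well plates. 2) Compound, 48 h, 5 concentrations. 3) Linear interpolation between surrounding doses. 4) Unreached endpoint = highest concentration. GI50 is the concentration that inhibits growth by half. At the TGI there is no net growth.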

Among the test systems are CCRF-CEM leukemia; CAKI-1 renal; MCF7 breast; RPMI-8226 leukemia; SK-MEL-28 melanoma; UACC-62 melanoma; SK-MEL-2 melanoma; MALME-3M melanoma; NCI/ADR-RES ovarian; NCI-H522 lung.
What all share (assay): growth of human tumour cells (NCI), 48 h

Regarding `O=C(O)C(Cl)Cl`, the GI50 with CCRF-CEM leukemia was 4920 µM and > 4680 µM; in the assay with CAKI-1 renal, 5490 µM and > 10000 µM; in the assay on MCF7 breast, 5560 µM and > 10000 µM; in the assay on RPMI-8226 leukemia it was 3210 µM and > 9400 µM; with SK-MEL-28 melanoma it was 3150 µM and > 10000 µM; in the assay with UACC-62 melanoma, 6710 µM and > 10000 µM. The GI50 was 8200 µM and > 10000 µM in the assay on SK-MEL-2 melanoma; 2500 µM and > 10000 µM with MALME-3M melanoma; 7660 µM and > 10000 µM with NCI/ADR-RES ovarian; 8040 µM and > 10000 µM in the assay with NCI-H522 lung. Further, the TGI with CCRF-CEM leukemia, in the assay on CAKI-1 renal, in the assay with MCF7 breast, with RPMI-8226 leukemia, in the assay on SK-MEL-28 melanoma and in the assay on UACC-62 melanoma was above 10000 µM in each case. In addition, the TGI in the assay on SK-MEL-2 melanoma, in the assay with MALME-3M melanoma, with NCI/ADR-RES ovarian and with NCI-H522 lung was above 10000 µM each time.

`COC(=O)/C=C/c1cc(OC(C)=O)c2c(c1)[C@@H](C(=O)OC)[C@H](c1ccc(OC(C)=O)c(OC(C)=O)c1)O2`: the GI50 was 0.039 µM in the assay with CCRF-CEM leukemia; 0.314 µM in the assay on CAKI-1 renal; 0.0339 µM with MCF7 breast; 0.049 µM with RPMI-8226 leukemia; 0.852 µM in the assay on SK-MEL-28 melanoma; 0.359 µM with UACC-62 melanoma. The GI50 was 0.268 µM in the assay with SK-MEL-2 melanoma, 0.0512 µM with MALME-3M melanoma, 0.0423 µM in the assay on NCI/ADR-RES ovarian and 0.0348 µM in the assay on NCI-H522 lung. The TGI with CCRF-CEM leukemia is 34.4 µM; in the assay on CAKI-1 renal, 44.7 µM; with MCF7 breast, above 70.7 µM; in the assay on SK-MEL-28 melanoma, 80.8 µM; in the assay on UACC-62 melanoma, 26 µM; with SK-MEL-2 melanoma it was 70 µM. For the same compound, the TGI with MALME-3M melanoma is 48.7 µM; in the assay on NCI/ADR-RES ovarian, 1.93 µM; in the assay on NCI-H522 lung it was 2.13 µM.

For the compound `NC(N)=NS(=O)(=O)c1ccc(N=Nc2c(O)c(C(=O)O)cc3ccccc23)cc1`, the TGI with CCRF-CEM leukemia, in the assay on CAKI-1 renal, in the assay with MCF7 breast, in the assay with RPMI-8226 leukemia, in the assay with SK-MEL-28 melanoma and in the assay with UACC-62 melanoma was above 100 µM in each case. Further, the TGI in the assay on SK-MEL-2 melanoma, with MALME-3M melanoma, in the assay with NCI/ADR-RES ovarian and in the assay on NCI-H522 lung was above 100 µM throughout.

For the compound `C/C=C/[C@@H]1O[C@@H]2COC(=O)C2=C[C@@H]1O`, the GI50 with CCRF-CEM leukemia is 2.94 µM; with CAKI-1 renal it was 2.14 µM; in the assay with MCF7 breast, 33.5 µM; with RPMI-8226 leukemia, 2.55 µM; in the assay on SK-MEL-28 melanoma, 15.3 µM; in the assay on UACC-62 melanoma, 17.5 µM. Besides, the GI50 is 33.1 µM in the assay with SK-MEL-2 melanoma, 1.96 µM in the assay with MALME-3M melanoma, 25.9 µM with NCI/ADR-RES ovarian and 3.95 µM in the assay with NCI-H522 lung. For the same compound, the TGI was above 100 µM with CCRF-CEM leukemia; 5.03 µM with CAKI-1 renal; above 100 µM with MCF7 breast; 7.18 µM in the assay with RPMI-8226 leukemia; 32.9 µM in the assay on SK-MEL-28 melanoma; 34.6 µM in the assay on UACC-62 melanoma. Besides, the TGI is above 79.7 µM in the assay with SK-MEL-2 melanoma, 6.85 µM in the assay on MALME-3M melanoma, 60.5 µM with NCI/ADR-RES ovarian and above 29.1 µM with NCI-H522 lung.

In the case of `COc1ccc(CN2C(=O)C(Cl)=C(Nc3cccc(C(F)(F)F)c3)C2=O)cc1`, the GI50 was 2.54 µM in the assay on CCRF-CEM leukemia; 5.16 µM in the assay on CAKI-1 renal; 2.7 µM in the assay on MCF7 breast; 2.38 µM with RPMI-8226 leukemia; 4.89 µM in the assay on SK-MEL-28 melanoma; 5.33 µM in the assay with UACC-62 melanoma. Besides, the GI50 was 12.3 µM with SK-MEL-2 melanoma, 2.99 µM in the assay on MALME-3M melanoma and 7.43 µM in the assay with NCI/ADR-RES ovarian. The TGI in the assay on CCRF-CEM leukemia came to 17.4 µM; in the assay on CAKI-1 renal it was 24.4 µM; with MCF7 breast, 17.2 µM; in the assay with RPMI-8226 leukemia, 23.2 µM; in the assay with SK-MEL-28 melanoma it was 18.2 µM; in the assay with UACC-62 melanoma it was 19.1 µM. Also, the TGI in the assay on SK-MEL-2 melanoma stood at 27.3 µM; with MALME-3M melanoma, 22.7 µM; with NCI/ADR-RES ovarian it was 45.6 µM.

Regarding `COc1ccc(Cn2c(Br)c3c(c2Br)-c2nc(N)sc2CC3)cc1`, the GI50 with CCRF-CEM leukemia is 0.472 µM; in the assay with CAKI-1 renal, 2.9 µM; in the assay with MCF7 breast it was 3.58 µM; with SK-MEL-28 melanoma, 4.98 µM; in the assay with UACC-62 melanoma it was 6.97 µM; in the assay on SK-MEL-2 melanoma, 5.56 µM. In addition, the GI50 is 5.22 µM with MALME-3M melanoma, 4.85 µM in the assay with NCI/ADR-RES ovarian and 1.59 µM in the assay with NCI-H522 lung. For the same compound, the TGI in the assay on CCRF-CEM leukemia came to 15.1 µM; with CAKI-1 renal it was 10.4 µM; in the assay on MCF7 breast, 17.6 µM; in the assay with SK-MEL-28 melanoma, 18.1 µM; in the assay on UACC-62 melanoma it was 26 µM; with SK-MEL-2 melanoma, 19.9 µM. Besides, the values for the TGI in the assay on MALME-3M melanoma, in the assay with NCI/ADR-RES ovarian and in the assay on NCI-H522 lung were 19.9 µM, 53.5 µM and 3.04 µM, respectively.

Turning to `COc1cc(-c2nc3sccn3c2-c2ccnc(NCCNS(=O)(=O)c3ccc(F)cc3)n2)ccc1F`, the GI50 with CCRF-CEM leukemia was 0.643 µM; in the assay with CAKI-1 renal, 2.53 µM; in the assay with MCF7 breast it was 2 µM; with SK-MEL-28 melanoma, 3.28 µM; with UACC-62 melanoma, 0.688 µM; in the assay on SK-MEL-2 melanoma, 2.24 µM. The results for the GI50 in the assay with MALME-3M melanoma, in the assay on NCI/ADR-RES ovarian and in the assay with NCI-H522 lung were 2.07 µM, 1.94 µM and 2.12 µM, respectively. The TGI with CCRF-CEM leukemia is above 100 µM; in the assay with CAKI-1 renal it was above 100 µM; in the assay on MCF7 breast, above 100 µM; with SK-MEL-28 melanoma, above 100 µM; with UACC-62 melanoma, 2.55 µM; in the assay on SK-MEL-2 melanoma it was 7.27 µM. Besides, the values for the TGI with MALME-3M melanoma, in the assay with NCI/ADR-RES ovarian and with NCI-H522 lung were 7.38 µM, above 100 µM and above 100 µM, respectively.

Regarding `Cc1ccc(NC2=C3CCCCC3OC2=O)cc1` (stereo unspecified), the GI50 in the assay on CCRF-CEM leukemia is 21.6 µM; in the assay on CAKI-1 renal it was 49.5 µM; with MCF7 breast it was 20.5 µM; in the assay with RPMI-8226 leukemia, 34.5 µM; in the assay with SK-MEL-28 melanoma, above 100 µM; in the assay with UACC-62 melanoma it was 47 µM. In addition, the figures for the GI50 with MALME-3M melanoma, with NCI/ADR-RES ovarian and in the assay with NCI-H522 lung were 39.2 µM, above 100 µM and 29 µM, respectively. Besides, the TGI in the assay with CCRF-CEM leukemia is 84.2 µM; with CAKI-1 renal, above 100 µM; in the assay with MCF7 breast, above 100 µM; with RPMI-8226 leukemia it was above 100 µM; in the assay on SK-MEL-28 melanoma it was above 100 µM; with UACC-62 melanoma, above 100 µM. Moreover, the TGI in the assay on MALME-3M melanoma, in the assay on NCI/ADR-RES ovarian and with NCI-H522 lung was above 100 µM throughout.

Source of the values: PubChem BioAssay (NCI).
